Test results taken from ChEMBL document CHEMBL4316596, “Antimicrobial Peptides with High Proteolytic Resistance for Combating Gram-Negative Bacteria” (J Med Chem, 2019).
In brackets after ≈: the same amount, converted by molar mass. Positions of bridges follow the written chain, without caps; N, C: chain ends. Non-standard residues stand in square brackets, D forms with d. Residues, ends and D or L forms follow the SMILES beside them. *: point of attachment. X1 = CC[C@H](C)CCCCC(=O)*; Dab = NCC[C@H](N)C(=O)O

Tests used:
[1] = test system: Klebsiella pneumoniae; test: Antimicrobial activity against Klebsiella pneumoniae after 24 hrs by NCCLS-protocol based assay; format: functional
[2] = test system: Pseudomonas aeruginosa; test: Bactericidal activity against Pseudomonas aeruginosa CICC 21625 clinical isolates incubated for 4 hrs followed by culture spread on agar plates and cultured overnight; format: functional; conditions: CICC 21625, 4 h, read-out: MBC>99.9
[3] = test system: Pseudomonas aeruginosa; test: Antimicrobial activity against Pseudomonas aeruginosa ATCC 27853 after 24 hrs by NCCLS-protocol based assay; format: functional; conditions: ATCC 27853, 24 h
[4] = test system: Salmonella typhimurium; test: Antimicrobial activity against Salmonella typhimurium C7731 after 24 hrs by NCCLS-protocol based assay; format: functional, Salmonella enterica subsp. enterica serovar Typhimurium; conditions: Salmonella enterica, C7731, 24 h
[5] = test system: Acinetobacter baumannii; test: Bactericidal activity against Acinetobacter baumannii incubated for 4 hrs followed by culture spread on agar plates and cultured overnight; format: functional; conditions: read-out: MBC>99.9
[6] = test system: Escherichia coli; test: Antimicrobial activity against Escherichia coli ATCC 25922 after 24 hrs by NCCLS-protocol based assay; format: functional; conditions: ATCC 25922, 24 h
[7] = test system: Pseudomonas aeruginosa; test: Antimicrobial activity against Pseudomonas aeruginosa CICC 21630 clinical isolates after 24 hrs by NCCLS-protocol based assay; format: functional; conditions: CICC 21630, 24 h
[8] = test system: Salmonella typhimurium; test: Antimicrobial activity against Salmonella typhimurium ATCC 14028 after 24 hrs by NCCLS-protocol based assay; format: functional, Salmonella enterica subsp. enterica serovar Typhimurium; conditions: Salmonella enterica, ATCC 14028, 24 h
[9] = test system: Escherichia coli; test: Antimicrobial activity against Escherichia coli UB1005 after 24 hrs by NCCLS-protocol based assay; format: functional; conditions: UB1005, 24 h
[10] = test system: Pseudomonas aeruginosa; test: Bactericidal activity against Pseudomonas aeruginosa 26305 clinical isolates incubated for 4 hrs followed by culture spread on agar plates and cultured overnight; format: functional; conditions: Pseudomonas aeruginosa, 26305, 4 h; read-out: MBC>99.9
[11] = test system: Pseudomonas aeruginosa; test: Antimicrobial activity against Pseudomonas aeruginosa 25349 clinical isolates after 24 hrs by NCCLS-protocol based assay; format: functional; conditions: Pseudomonas aeruginosa, 25349, 24 h
[12] = test system: Pseudomonas aeruginosa; test: Bactericidal activity against Pseudomonas aeruginosa ATCC 27853 incubated for 4 hrs followed by culture spread on agar plates and cultured overnight; format: functional; conditions: ATCC 27853, 4 h, read-out: MBC>99.9
[13] = test system: Pseudomonas aeruginosa; test: Antimicrobial activity against Pseudomonas aeruginosa 26305 clinical isolates after 24 hrs by NCCLS-protocol based assay; format: functional; conditions: Pseudomonas aeruginosa, 26305, 24 h
[14] = test system: Escherichia coli; test: Antimicrobial activity against Escherichia coli K88 after 24 hrs by NCCLS-protocol based assay; format: functional; conditions: K88, 24 h
[15] = Antimicrobial activity against Salmonella pullorum C7913 after 24 hrs by NCCLS-protocol based assay; format: functional, Salmonella enterica subsp. enterica serovar Pullorum; conditions: Salmonella enterica, C7913, 24 h
[16] = test system: Pseudomonas aeruginosa; test: Bactericidal activity against Pseudomonas aeruginosa 25349 clinical isolates incubated for 4 hrs followed by culture spread on agar plates and cultured overnight; format: functional; conditions: Pseudomonas aeruginosa, 25349, 4 h; read-out: MBC>99.9
[17] = test system: Acinetobacter baumannii; test: Antimicrobial activity against Acinetobacter baumannii after 24 hrs by NCCLS-protocol based assay; format: functional
[18] = test system: Pseudomonas aeruginosa; test: Bactericidal activity against Pseudomonas aeruginosa CICC 21630 clinical isolates incubated for 4 hrs followed by culture spread on agar plates and cultured overnight; format: functional; conditions: CICC 21630, 4 h, read-out: MBC>99.9
[19] = test system: Escherichia coli; test: Antimicrobial activity against Escherichia coli K99 after 24 hrs by NCCLS-protocol based assay; format: functional; conditions: K99, 24 h
[20] = test system: Escherichia coli; test: Antimicrobial activity against Escherichia coli 078 after 24 hrs by NCCLS-protocol based assay; format: functional; conditions: Escherichia coli, 078, 24 h
[21] = test system: Escherichia coli; test: Bactericidal activity against Escherichia coli 078 incubated for 4 hrs followed by culture spread on agar plates and cultured overnight; format: functional; conditions: Escherichia coli, 078, 4 h; read-out: MBC>99.9
[22] = test system: Pseudomonas aeruginosa; test: Antimicrobial activity against Pseudomonas aeruginosa PAO1 after 24 hrs by NCCLS-protocol based assay; format: functional; conditions: PAO1, 24 h
[23] = Bactericidal activity against Salmonella pullorum C7913 incubated for 4 hrs followed by culture spread on agar plates and cultured overnight; format: functional, Salmonella enterica subsp. enterica serovar Pullorum; conditions: Salmonella enterica, C7913, 4 h; read-out: MBC>99.9
[24] = test system: Klebsiella pneumoniae; test: Bactericidal activity against Klebsiella pneumoniae incubated for 4 hrs followed by culture spread on agar plates and cultured overnight; format: functional; conditions: read-out: MBC>99.9
[25] = test system: Escherichia coli; test: Bactericidal activity against Escherichia coli ATCC 25922 incubated for 4 hrs followed by culture spread on agar plates and cultured overnight; format: functional; conditions: ATCC 25922, 4 h, read-out: MBC>99.9
[26] = test system: Escherichia coli; test: Bactericidal activity against Escherichia coli UB1005 incubated for 4 hrs followed by culture spread on agar plates and cultured overnight; format: functional; conditions: UB1005, 4 h, read-out: MBC>99.9
[27] = test system: Pseudomonas aeruginosa; test: Antimicrobial activity against Pseudomonas aeruginosa CICC 21625 clinical isolates after 24 hrs by NCCLS-protocol based assay; format: functional; conditions: CICC 21625, 24 h
[28] = test system: Escherichia coli; test: Bactericidal activity against Escherichia coli K88 incubated for 4 hrs followed by culture spread on agar plates and cultured overnight; format: functional; conditions: K88, 4 h, read-out: MBC>99.9
[29] = test system: Escherichia coli; test: Bactericidal activity against Escherichia coli K99 incubated for 4 hrs followed by culture spread on agar plates and cultured overnight; format: functional; conditions: K99, 4 h, read-out: MBC>99.9
[30] = test system: Salmonella typhimurium; test: Bactericidal activity against Salmonella typhimurium ATCC 14028 incubated for 4 hrs followed by culture spread on agar plates and cultured overnight; format: functional, Salmonella enterica subsp. enterica serovar Typhimurium; conditions: Salmonella enterica, ATCC 14028, 4 h; read-out: MBC>99.9
[31] = test system: Pseudomonas aeruginosa; test: Bactericidal activity against Pseudomonas aeruginosa PAO1 incubated for 4 hrs followed by culture spread on agar plates and cultured overnight; format: functional; conditions: PAO1, 4 h, read-out: MBC>99.9
[32] = test system: Salmonella typhimurium; test: Bactericidal activity against Salmonella typhimurium C7731 incubated for 4 hrs followed by culture spread on agar plates and cultured overnight; format: functional, Salmonella enterica subsp. enterica serovar Typhimurium; conditions: Salmonella enterica, C7731, 4 h; read-out: MBC>99.9

MIC95 [1]: 4 µM (≈ 4.81 µg/mL) | MIC95 [3]: 2 µM (≈ 2.41 µg/mL) | MIC95 [4]: 2 µM (≈ 2.41 µg/mL) | MIC95 [6]: 1 µM (≈ 1.2 µg/mL) | MIC95 [7]: 4 µM (≈ 4.81 µg/mL) | MIC95 [8]: 2 µM (≈ 2.41 µg/mL) | MIC95 [9]: 0.5 µM (≈ 0.602 µg/mL) | MIC95 [11]: 2 µM (≈ 2.41 µg/mL) | MIC95 [13]: 4 µM (≈ 4.81 µg/mL) | MIC95 [14]: 0.5 µM (≈ 0.602 µg/mL) | MIC95 [15]: 0.5 µM (≈ 0.602 µg/mL) | MIC95 [17]: 0.25 µM (≈ 0.301 µg/mL) | MIC95 [19]: 2 µM (≈ 2.41 µg/mL) | MIC95 [20]: 1 µM (≈ 1.2 µg/mL) | MIC95 [22]: 16 µM (≈ 19.3 µg/mL) | MIC95 [27]: 4 µM (≈ 4.81 µg/mL)
Structure (SMILES): CC[C@H](C)CCCCC(=O)N[C@@H](CCN)C(=O)N[C@H](C(=O)N[C@@H](CCN)C(=O)N[C@H]1CCNC(=O)[C@H]([C@@H](C)O)NC(=O)[C@H](CCN)NC(=O)[C@H](CCN)NC(=O)[C@H](CC(C)C)NC(=O)[C@@H](Cc2ccccc2)NC(=O)[C@H](CCN)NC1=O)[C@@H](C)O (X1-[Dab]T[Dab][Dab][Dab][dF]L[Dab][Dab]T; lactam 4-C)
MBC [2]: 8 µM (≈ 9.63 µg/mL) | MBC [5]: 0.25 µM (≈ 0.301 µg/mL) | MBC [10]: 4 µM (≈ 4.81 µg/mL) | MBC [12]: 2 µM (≈ 2.41 µg/mL) | MBC [16]: 4 µM (≈ 4.81 µg/mL) | MBC [18]: 8 µM (≈ 9.63 µg/mL) | MBC [21]: 2 µM (≈ 2.41 µg/mL) | MBC [23]: 1 µM (≈ 1.2 µg/mL) | MBC [24]: 8 µM (≈ 9.63 µg/mL) | MBC [25]: 2 µM (≈ 2.41 µg/mL) | MBC [26]: 1 µM (≈ 1.2 µg/mL) | MBC [28]: 1 µM (≈ 1.2 µg/mL) | MBC [29]: 2 µM (≈ 2.41 µg/mL) | MBC [30]: 4 µM (≈ 4.81 µg/mL) | MBC [31]: 32 µM (≈ 38.5 µg/mL) | MBC [32]: 4 µM (≈ 4.81 µg/mL)
